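At the GI50, growth is halved. Definition used: TGI = concentration required for complete inhibition of growth.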
Tests used:
Assay in all cases: NCI tumour cell line growth inhibition, 384-well format
786-0 renal = tested on: 786-0 renal
A498 renal = tested on: A498 renal
A549 NSCLC = tested on: A549 NSCLC
ACHN renal = tested on: ACHN renal
BT-549 breast = tested on: BT-549 breast
CAKI-1 renal = tested on: CAKI-1 renal
CCRF-CEM leukemia = tested on: CCRF-CEM leukemia
COLO 205 colon = tested on: COLO 205 colon
DU-145 prostate = tested on: DU-145 prostate
HCC-2998 colon = tested on: HCC-2998 colon
HCT-116 colon = tested on: HCT-116 colon
HCT-15 colon = tested on: HCT-15 colon
HL-60(TB) leukemia = tested on: HL-60(TB) leukemia
HOP-62 NSCLC = tested on: HOP-62 NSCLC
HOP-92 NSCLC = tested on: HOP-92 NSCLC
HT29 colon = tested on: HT29 colon
IGROV1 ovarian = tested on: IGROV1 ovarian
K-562 leukemia = tested on: K-562 leukemia
KM12 colon = tested on: KM12 colon
LOX IMVI melanoma = tested on: LOX IMVI melanoma
M14 melanoma = tested on: M14 melanoma
MALME-3M melanoma = tested on: MALME-3M melanoma
MCF7 breast = tested on: MCF7 breast
MDA-MB-231 breast = tested on: MDA-MB-231 breast
MDA-MB-435 melanoma = tested on: MDA-MB-435 melanoma
MDA-MB-468 breast = tested on: MDA-MB-468 breast
MOLT-4 leukemia = tested on: MOLT-4 leukemia
NCI-H226 lung = tested on: NCI-H226 lung
NCI-H322M lung = tested on: NCI-H322M lung
NCI-H460 NSCLC = tested on: NCI-H460 NSCLC
NCI-H522 lung = tested on: NCI-H522 lung
NCI/ADR-RES ovarian = tested on: NCI/ADR-RES ovarian
OVCAR-4 ovarian = tested on: OVCAR-4 ovarian
OVCAR-5 ovarian = tested on: OVCAR-5 ovarian
OVCAR-8 ovarian = tested on: OVCAR-8 ovarian
PC-3 prostate = tested on: PC-3 prostate
RPMI-8226 leukemia = tested on: RPMI-8226 leukemia
RXF 393 renal = tested on: RXF 393 renal
SF-268 CNS = tested on: SF-268 CNS
SF-539 CNS = tested on: SF-539 CNS
SK-MEL-2 melanoma = tested on: SK-MEL-2 melanoma
SK-MEL-28 melanoma = tested on: SK-MEL-28 melanoma
SK-MEL-5 melanoma = tested on: SK-MEL-5 melanoma
SK-OV-3 ovarian = tested on: SK-OV-3 ovarian
SN12C renal = tested on: SN12C renal
SNB-19 CNS = tested on: SNB-19 CNS
SR leukemia = tested on: SR leukemia
SW-620 colon = tested on: SW-620 colon
TK-10 renal = tested on: TK-10 renal
U251 glioblastoma = tested on: U251 glioblastoma
UACC-257 melanoma = tested on: UACC-257 melanoma
UACC-62 melanoma = tested on: UACC-62 melanoma
UO-31 renal = tested on: UO-31 renal

SMILES: Cc1c(F)c(N)c2c(=O)cc(-c3ccc(NC(=O)[C@@H](N)CCCCN)c(F)c3)oc2c1F
- GI50 ([…]-0 renal): 9.12 µM
- TGI (786-0 renal): 21.3 µM
- GI50 (A498 renal): 0.0368 µM
- TGI (A498 renal): 0.182 µM
- GI50 (A549 NSCLC): 1.72 µM
- TGI (A549 NSCLC): 17.1 µM
- GI50 (ACHN renal): 11.2 µM
- TGI (ACHN renal): 23.3 µM
- GI50 (BT-549 breast): 5.47 µM
- TGI (BT-549 breast): 17.9 µM
- GI50 (CAKI-1 renal): 1.52 µM
- TGI (CAKI-1 renal): 19.5 µM
- GI50 (CCRF-CEM leukemia): 1.6 µM
- TGI (CCRF-CEM leukemia): 3.08 µM
- GI50 (COLO 205 colon): 6.39 µM
- TGI (COLO 205 colon): 18 µM
- GI50 (DU-145 prostate): 12.5 µM
- TGI (DU-145 prostate): 25 µM
- GI50 (HCC-2998 colon): 11.7 µM
- TGI (HCC-2998 colon): 24 µM
- GI50 (HCT-116 colon): 1.01 µM
- TGI (HCT-116 colon): 2.57 µM
- GI50 (HCT-15 colon): 8.41 µM
- TGI (HCT-15 colon): 20.6 µM
- GI50 (HL-60(TB) leukemia): 0.878 µM
- TGI (HL-60(TB) leukemia): 15.4 µM
- GI50 (HOP-62 NSCLC): 9.12 µM
- TGI (HOP-62 NSCLC): 21.5 µM
- GI50 (HOP-92 NSCLC): 4.95 µM
- TGI (HOP-92 NSCLC): 15.7 µM
- GI50 (HT29 colon): 13.2 µM
- TGI (HT29 colon): 26 µM
- GI50 (IGROV1 ovarian): 0.0154 µM
- TGI (IGROV1 ovarian): 0.0561 µM
- GI50 (K-562 leukemia): 1.09 µM
- TGI (K-562 leukemia): 2.85 µM
- GI50 (KM12 colon): 2.31 µM
- TGI (KM12 colon): 5.46 µM
- GI50 (LOX IMVI melanoma): 10.2 µM
- TGI (LOX IMVI melanoma): 21.9 µM
- GI50 (M14 melanoma): 2.86 µM
- TGI (M14 melanoma): 6.82 µM
- GI50 (MALME-3M melanoma): 4.61 µM
- TGI (MALME-3M melanoma): 12.1 µM
- GI50 (MCF7 breast): 0.0266 µM
- TGI (MCF7 breast): 0.146 µM
- GI50 (MDA-MB-231 breast): 5.54 µM
- TGI (MDA-MB-231 breast): 17.4 µM
- GI50 (MDA-MB-435 melanoma): 3.27 µM
- TGI (MDA-MB-435 melanoma): 8.1 µM
- TGI (MDA-MB-468 breast): 0.0175 µM
- GI50 (MOLT-4 leukemia): 1.57 µM
- TGI (MOLT-4 leukemia): 2.91 µM
- GI50 (NCI-H226 lung): 0.0195 µM
- TGI (NCI-H226 lung): 0.128 µM
- GI50 (NCI-H322M lung): 9.87 µM
- TGI (NCI-H322M lung): 21.5 µM
- GI50 (NCI-H460 NSCLC): 0.37 µM
- TGI (NCI-H460 NSCLC): 2.03 µM
- GI50 (NCI-H522 lung): 4.75 µM
- TGI (NCI-H522 lung): 18.6 µM
- GI50 (NCI/ADR-RES ovarian): 12.7 µM
- TGI (NCI/ADR-RES ovarian): 25.3 µM
- GI50 (OVCAR-4 ovarian): 8.64 µM
- TGI (OVCAR-4 ovarian): 21 µM
- GI50 (OVCAR-5 ovarian): 0.046 µM
- TGI (OVCAR-5 ovarian): 12 µM
- GI50 (OVCAR-8 ovarian): 6.35 µM
- TGI (OVCAR-8 ovarian): 19.5 µM
- GI50 (PC-3 prostate): 13.3 µM
- TGI (PC-3 prostate): 26.1 µM
- GI50 (RPMI-8226 leukemia): 0.804 µM
- TGI (RPMI-8226 leukemia): 3.31 µM
- GI50 (RXF 393 renal): 8.49 µM
- TGI (RXF 393 renal): 20.7 µM
- GI50 (SF-268 CNS): 6.37 µM
- TGI (SF-268 CNS): 18.9 µM
- GI50 (SF-539 CNS): 2.27 µM
- TGI (SF-539 CNS): 4.54 µM
- GI50 (SK-MEL-2 melanoma): 2.98 µM
- TGI (SK-MEL-2 melanoma): 11.9 µM
- GI50 (SK-MEL-28 melanoma): 13.4 µM
- TGI (SK-MEL-28 melanoma): 26.2 µM
- GI50 (SK-MEL-5 melanoma): 0.378 µM
- TGI (SK-MEL-5 melanoma): 12.4 µM
- GI50 (SK-OV-3 ovarian): 3.17 µM
- TGI (SK-OV-3 ovarian): 12 µM
- GI50 (SN12C renal): 10.3 µM
- TGI (SN12C renal): 22 µM
- GI50 (SNB-19 CNS): 11.3 µM
- TGI (SNB-19 CNS): 23.4 µM
- GI50 (SR leukemia): 1.52 µM
- TGI (SR leukemia): 2.89 µM
- GI50 (SW-620 colon): 2.56 µM
- TGI (SW-620 colon): 11.5 µM
- GI50 (TK-10 renal): 0.13 µM
- TGI (TK-10 renal): 12.6 µM
- GI50 (U251 glioblastoma): 1.26 µM
- TGI (U251 glioblastoma): 2.6 µM
- GI50 (UACC-257 melanoma): 0.285 µM
- TGI (UACC-257 melanoma): 0.884 µM
- GI50 (UACC-62 melanoma): 0.618 µM
- TGI (UACC-62 melanoma): 16 µM
- GI50 (UO-31 renal): 11.1 µM
- TGI (UO-31 renal): 23.1 µM
